Patent publication US11672810B2, “Therapeutics and methods for predicting and overcoming endocrine resistance in breast cancer” (LUNELLA BIOTECH, INC., priority 2019, dated 2023)

What was measured:
MCF7-GFP cells = assay: Drug treatment of fluorescently-labeled MCF7-fibroblast co-cultures vs mono-cultures (GFP fluorescence, plate-reader); format: cell-based, human; details: 72 hours; for Sensitivity of MCF7-GFP cells in co-culture with fibroblasts relative to mono-cultures: at 500 μM drug, GFP fluorescence, hTERT-BJ1-RFP fibroblast co-culture vs MCF7-GFP mono-culture
Text: To directly test this hypothesis, a new assay system may be used to monitor the sensitivity of cancer cells to drug treatment, in the presence or absence of fibroblasts. For this purpose, hTERT-BJ1-fibroblasts expressing RFP (red fluorescent protein) and MCF7 cells expressing GFP (green fluorescent protein) were generated. Representative images of these mono-cultures are shown in FIGS. 14A (hTERT-BJ1-RFP) and 14B (MCF7-GFP). The hTERT-BJ1-fibroblasts expressing RFP and MCF7 cells expressing GFP were generated by lentiviral transduction. RFP, red fluorescent protein; GFP, green fluorescent protein.
Validation via drug treatment of fluorescently-labeled MCF7-fibroblast co-cultures: hTERT-BJ1-RFP cells and MCF7-GFP cells were first generated by stable transduction with lenti-viral vectors. Then, these cells were plated into clear flat bottom 96-well black microplates (Corning; CLS3603). Mono-cultures were generated by plating either hTERT-BJ1-RFP (8,000 cells/well) or MCF7-GFP cells (8,000 cells/well). In parallel, co-cultures were generated by co-plating hTERT-BJ1-RFP (6,000 cells/well) with MCF7-GFP (2,000 cells/well). The next day, the plates were treated with either Doxycycline or Azithromycin (or vehicle controls) and were incubated for 72 hours at 37° C. The cell culture plates were then read with a plate-reader at 545/590 nm (for RFP) and at 490/510 nm (for GFP). Background readings were subtracted from the fluorescent signal and data were then normalized to controls.

[1] = test system: MCF7-fibroblasts co-cultures; details: MCF7-fibroblast co-cultures; Tamoxifen, Fulvestrant; cited from earlier work

| SMILES | Sensitivity of MCF7-GFP cells in co-culture with fibroblasts relative to mono-cultures (MCF7-GFP cells) [fold] | Concentration at which increased sensitivity of MCF7-GFP cells in co-culture was first observed (MCF7-GFP cells; not observed at 50 μM) [µM] | Effect on resistance of co-cultures to apoptosis induced by hormonal therapies [1] |
| --- | --- | --- | --- |
| CC[C@H]1OC(=O)[C@H](C)[C@@H](O[C@H]2C[C@@](C)(OC)[C@@H](O)[C@H](C)O2)[C@H](C)[C@@H](O[C@@H]2O[C@H](C)C[C@H](N(C)C)[C@H]2O)[C@](C)(O)C[C@@H](C)CN(C)[C@H](C)[C@@H](O)[C@]1(C)O [Azithromycin] | ~8 | – | – |
| C[C@H]1c2cccc(O)c2C(=O)C2=C(O)[C@]3(O)C(=O)C(C(N)=O)=C(O)[C@@H](N(C)C)[C@@H]3[C@@H](O)[C@@H]21 [Doxycycline] | ~5 | 100 | – |
| CN(C)C(=N)N=C(N)N [Metformin] | – | – | reversed |
